Laboratory results reported in US6753329B2, “Inhibitors of cyclin-dependent kinases, compositions and uses related thereto” (GPC Biotech Inc., priority 2001, dated 2004).
Where two headings read alike, the source gives them in different places.

Assays:
Cdk2/cyclin A = molecular target: T1, Cdk2/cyclin A (Homo sapiens, UniProt P24941); test: Cdk2/cyclin A inhibition assay; format: biochemical; details: read-out: K2/A
T1 construct: made in house; host or cells: Sf9 cells
Excerpt: (§1) Enzymes: Cdc2/cyclin B was obtained from commercial sources. Cdk2/his-cyclin Eshort was expressed in Sf9 cells. Cdk2/cyclin A, cdk4/cyclin D1, and cdk6/cyclin D2 were expressed in Sf9 cells. Protein kinase A (catalytic subunit, from bovine heart) and protein kinase C (mixed isozymes from rat brain) were obtained from commercial sources.

Cdk4/cyclin D1 = molecular target: T2, Cdk4/cyclin D1 (Homo sapiens, UniProt P11802); test: Cdk4/cyclin D1 inhibition, glutathione-sepharose capture assay; format: biochemical; details: read-out: K4/D1
T2 construct: made in house; host or cells: Sf9 insect cells
Excerpt: as §1
(§2) Substrates: Histone H1 was from commercial sources. GST-Rb is glutathione-S-transferase fused to the N-terminal of residues 379-928 of the Rb protein.
(§3) Cdk2/cyclin E, Cdk4/cyclin D1, and Cdk6/cyclin D2 activity was determined using a glutathione-sepharose capture assay. The enzymes were expressed in Sf9 insect cells as heterodimers, and the substrate (GST-Rb) was glutathione-S-transferase fused to residues 379 to 928 of Rb retinoblastoma protein, expressed in E. coli. The assay solution contained 50 mM Tris.HCl, 10 mM MgCl2, 1 mM dithiothreitol, 50 μM adenosine triphosphate, 2 μCi [γ-^33P]adenosine triphosphate, 10% dimethylsulfoxide (from compounds), pH 7.5, 40 µg GST-Rb, and enzyme in a 100 μL volume. Compounds were added at various concentrations between 1 nM and 10 μM. The reaction was allowed to proceed for 15 min at 30° C. and was stopped by the addition of 70 μL of stop solution (237 mM disodium ethylenediamine tetraacetate, 105 mM adenosine triphosphate, pH 8.0). The GST-Rb was captured by binding to glutathione-sepharose bead (Amersham) for 110 min, and the suspension was filtered through a glass fiber filter. After washing the retained beads five time with phosphate-buffered saline containing 0.3% (w/v) Tween-20, the amount of ^33P incorporated was determined by scintillation counting after adding 100 μL scintillant. Relative activity was determined by dividing the amount of radioactivity incorporated in the presence of compound by the amount of radioactivity incorporated in a control experiment containing DMSO alone but no compound. The background radioactivity, determined in an experiment containing 50 mM disodium ethylenediamine tetraacetate in place of compound, was subtracted from all results before calculations.

Cdc2/cyclin B = molecular target: T3, Cdc2/cyclin B (Homo sapiens, UniProt P06493); test: Cdc2/cyclin B inhibition, TCA precipitation assay; format: biochemical; details: 50 μM ATP, Histone H1 substrate
T3 construct: purchased
Experimental: as §1
Assays: Cdc2/cyclinB activity was determined by measuring incorporation of radioactivity from adenosine [γ-^32P]triphosphate into Histone H1 using a TCA precipitation assay. Cdc2/cyclin B kinase and Histone H1 were obtained from commercial sources. The final assay solution contained 50 mM Tris.HCl, 10 mM MgCl2, 1 mM dithiothreitol, 50 μM adenosine triphosphate, 2 μCi ^32P, 10% dimethylsulfoxide (from compounds), pH 7.5, 20 μg Histone H1, 6 U enzyme in a 50 μL volume. Compounds were added at various concentrations between 1 nM and 10 μM. The reaction was started with the addition of enzyme, allowed to proceed for 20 min at 30° C., and stopped by the addition of 20 μL of stop solution (237 mM disodium ethylenediamine tetraacetate, 105 mM adenosine triphosphate, pH 8.0). The protein was precipitated by the addition of 35 μL 70% (w/v) trichloroacetic acid, and the precipitate was captured on a 96-well glass fiber filter plate (Millipore, Inc.), which had been wet with 25% (w/v) trichloroacetic acid. The filter was washed ten times with 25% (w/v) trichloroacetic acid, and the amount of incorporated ^32P was determined by scintillation counting after adding 100 μL scintillant (Microscint 20, Packard Instruments). Relative activity was determined by dividing the amount of radioactivity incorporated in the presence of compound by the amount of radioactivity incorporated in a control experiment containing DMSO alone but no compound. The background radioactivity, determined in an experiment containing 50 mM EDTA in place of compound, was subtracted from all results before calculations.
P=min+(max−min)(1/(1+(IC50/[I])^s)) (1)
where P=1—relative activity is relative inhibition, [I] is concentration of compound, max and min are the maximum and minimum relative inhibition (1 and 0, respectively) and s is the so-called Hill slope.

Cdk6/cyclin D2 = molecular target: T4, Cdk6/cyclin D2 (Homo sapiens, UniProt Q00534); test: Cdk6/cyclin D2 inhibition, glutathione-sepharose capture assay; format: biochemical; details: 50 μM ATP, GST-Rb substrate; read-out: K6/D2
T4 construct: made in house; host or cells: Sf9 insect cells
Excerpt: as §1, §2, §3

CDK2/cyclinE [1] = molecular target: T5, CDK2/cyclinE (Homo sapiens, UniProt P24941); test: Cdk2/cyclin E inhibition, glutathione-sepharose capture assay; format: biochemical; parameters: made in house; host or cells: Sf9 insect cells; details: 50 μM ATP, GST-Rb substrate; read-out: K2/E
Excerpt: as §1, §2, §3

[2] = molecular target: T6, Protein kinase A (catalytic subunit, from bovine heart) (Bos taurus, UniProt P00517); test: Protein kinase A inhibition, TCA precipitation assay; format: biochemical; details: 12 μM ATP, Histone H1; read-out: PKA
T6 construct: Protein kinase A (catalytic subunit, from bovine heart); purchased; host or cells: bovine heart
Experimental: as §1
Protein kinase C and protein kinase A were assayed using a TCA precipitation assay with Histone H1 as a substrate. For protein kinase A, the final assay contained 50 mM Tris, 10 mM MgCl2, 1 mM dithiothreitol, pH 7.5, 12 μM adenosine triphosphate, 10% (v/v) dimethylsulfoxide (from compounds), 20 μg Histone H1, 2 μCi [γ-^32P] adenosine triphosphate, 0.2 U protein kinase A in a 100 μL assay. A protein kinase C assay contained 50 mM Tris, 10 mM MgCl2, 1 mM dithiothreitol, 0.8 mM CaCl2, pH 7.5, 5 μM adenosine triphosphate, 10% (v/v) dimethylsulfoxide (from compounds), 20 μg Histone H1, 2 μCi [γ-^32P] adenosine triphosphate, 0.01 U protein. kinase C in a 50 μL assay. The assays were started by the addition of enzyme, allowed to react for 10 min at 30° C., and stopped by adding 0.4 volumes of 237 mM disodium ethylenediamine tetraacetate, 105 mM adenosine triphosphate, pH 8.0. The protein was precipitated from the stopped reaction by adding 0.5 volume 75% (w/v) trichloroacetic acid and captured by filtering through a 96-well glass fiber filtration apparatus (Millipore). The filters were washed ten times with 25% (w/v) trichloroacetic acid, and the amount of incorporated [^32P]phosphate was determined by adding 100 μl Microscint and scintillation counting.

c-Abl = c-Abl (Homo sapiens, UniProt P00519); test: c-Abl inhibition; format: biochemical
CDK2/cyclinE [3] = molecular target: T5, CDK2/cyclinE; test: BIACORE SPR binding of CDK2/cyclinE to compound-loaded CM5 chip; details: 22° C., compound coupled to CM5 chip, Langmuir 1:1 model
Experimental: The affinity of chemical compounds to their corresponding binding partners may be determined, for example, using a BIACORE™ assay system (Biacore AB, Uppsala, SE). Other systems yielding a qualitatively similar result, such as, for example, those developed by Affinity Sensors (Cambridge, UK), will be readily apparent to those skilled in the art.
In a representative procedure, the binding of Compound R to its known binding partners CDK2/cyclinE was analyzed. The analysis was performed on a BLACORE 2000 SPR-Biosensor at 22° C. in a running buffer containing 20 mM HEPES (pH 7.4), 150 mM NaCl, 1 mM DTT and 0.005% Tween 20 (protein grade, Calbiochem). A 10 μM solution of Compound R was coupled at pH 8.0 to the dextrane-surface of a CM5 sensor-chip (research grade) via amide coupling chemistry. […] The association and dissociation of the CDK2/cyclinE complex onto the CM5-Compound R-loaded chip surface was measured at a flow rate of 30 μl/min. […]
The data were analyzed using the Bioevaluation software version 3.1 (Biacore AB, Uppsala, SE). […] The association and dissociation rates were determined separately or globally using a Langmuir 1:1 binding model. The affinities (KD) were calculated using the equation: […]

T2 sequence (P11802 whole entry, species assumed): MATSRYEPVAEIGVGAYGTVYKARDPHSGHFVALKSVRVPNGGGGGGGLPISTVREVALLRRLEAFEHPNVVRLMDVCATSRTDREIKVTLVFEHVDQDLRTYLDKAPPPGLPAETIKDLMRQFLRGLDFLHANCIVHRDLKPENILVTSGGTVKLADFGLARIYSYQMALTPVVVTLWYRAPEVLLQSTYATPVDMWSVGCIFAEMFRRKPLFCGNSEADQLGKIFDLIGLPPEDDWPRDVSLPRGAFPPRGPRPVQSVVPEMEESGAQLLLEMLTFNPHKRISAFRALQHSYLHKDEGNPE
T2 sequence (P24385 whole entry partner, species assumed): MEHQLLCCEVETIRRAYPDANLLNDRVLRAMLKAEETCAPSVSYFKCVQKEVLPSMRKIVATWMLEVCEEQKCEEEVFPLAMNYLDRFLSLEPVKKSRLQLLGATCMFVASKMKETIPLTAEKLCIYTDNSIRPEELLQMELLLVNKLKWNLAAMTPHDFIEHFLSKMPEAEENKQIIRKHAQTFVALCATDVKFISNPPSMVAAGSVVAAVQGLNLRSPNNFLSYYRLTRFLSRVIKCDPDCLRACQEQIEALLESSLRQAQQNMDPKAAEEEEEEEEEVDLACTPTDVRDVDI
c-Abl, sequence (P00519 whole entry): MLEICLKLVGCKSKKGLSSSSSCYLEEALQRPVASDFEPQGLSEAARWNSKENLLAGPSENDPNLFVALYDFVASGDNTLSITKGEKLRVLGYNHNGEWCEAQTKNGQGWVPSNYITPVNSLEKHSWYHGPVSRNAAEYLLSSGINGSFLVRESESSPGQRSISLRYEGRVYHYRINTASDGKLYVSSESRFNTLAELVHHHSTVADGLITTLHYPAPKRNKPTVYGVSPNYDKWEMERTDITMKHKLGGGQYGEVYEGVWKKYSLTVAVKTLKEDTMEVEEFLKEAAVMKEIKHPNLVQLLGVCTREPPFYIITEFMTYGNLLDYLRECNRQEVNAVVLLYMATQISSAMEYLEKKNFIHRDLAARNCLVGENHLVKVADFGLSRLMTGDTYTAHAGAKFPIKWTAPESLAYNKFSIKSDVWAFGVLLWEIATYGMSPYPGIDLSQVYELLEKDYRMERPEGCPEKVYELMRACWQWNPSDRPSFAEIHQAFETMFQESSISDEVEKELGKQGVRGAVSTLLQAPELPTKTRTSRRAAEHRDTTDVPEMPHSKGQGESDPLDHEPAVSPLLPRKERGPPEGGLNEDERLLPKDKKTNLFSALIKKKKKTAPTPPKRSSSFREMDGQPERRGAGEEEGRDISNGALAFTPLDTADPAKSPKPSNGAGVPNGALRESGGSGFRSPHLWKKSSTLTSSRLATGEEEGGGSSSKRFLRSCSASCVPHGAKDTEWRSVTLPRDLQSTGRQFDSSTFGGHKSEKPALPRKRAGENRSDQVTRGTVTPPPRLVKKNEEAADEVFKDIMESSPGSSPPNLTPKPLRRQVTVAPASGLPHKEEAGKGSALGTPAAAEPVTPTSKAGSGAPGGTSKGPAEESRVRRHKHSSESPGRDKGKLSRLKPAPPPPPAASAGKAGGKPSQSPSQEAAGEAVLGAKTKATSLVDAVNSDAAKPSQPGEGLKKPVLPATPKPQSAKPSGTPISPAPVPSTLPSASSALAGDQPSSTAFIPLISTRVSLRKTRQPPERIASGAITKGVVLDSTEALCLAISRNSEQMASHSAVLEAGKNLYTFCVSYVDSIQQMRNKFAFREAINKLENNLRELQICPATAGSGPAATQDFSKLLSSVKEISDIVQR
T4 sequence (Q00534 whole entry, species assumed): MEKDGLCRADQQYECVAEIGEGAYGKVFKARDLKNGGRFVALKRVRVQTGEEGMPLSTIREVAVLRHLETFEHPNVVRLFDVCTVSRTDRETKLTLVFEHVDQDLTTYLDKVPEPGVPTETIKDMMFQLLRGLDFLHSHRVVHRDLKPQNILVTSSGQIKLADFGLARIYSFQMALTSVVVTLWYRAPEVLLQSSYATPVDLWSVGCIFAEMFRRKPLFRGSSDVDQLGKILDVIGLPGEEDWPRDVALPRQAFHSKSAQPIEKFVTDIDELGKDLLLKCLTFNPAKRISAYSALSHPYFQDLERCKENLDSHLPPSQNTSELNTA
T4 sequence (P30279 whole entry partner, species assumed): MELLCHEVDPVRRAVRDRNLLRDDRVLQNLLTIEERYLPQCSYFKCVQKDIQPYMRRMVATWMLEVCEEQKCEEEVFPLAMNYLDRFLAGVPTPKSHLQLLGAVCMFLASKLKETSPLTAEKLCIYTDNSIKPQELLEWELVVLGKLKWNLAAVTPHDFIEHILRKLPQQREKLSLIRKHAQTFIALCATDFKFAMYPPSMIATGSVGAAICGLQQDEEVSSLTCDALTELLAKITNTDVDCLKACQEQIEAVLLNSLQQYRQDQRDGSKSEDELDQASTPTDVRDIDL
T3 sequence (P06493 whole entry, species assumed): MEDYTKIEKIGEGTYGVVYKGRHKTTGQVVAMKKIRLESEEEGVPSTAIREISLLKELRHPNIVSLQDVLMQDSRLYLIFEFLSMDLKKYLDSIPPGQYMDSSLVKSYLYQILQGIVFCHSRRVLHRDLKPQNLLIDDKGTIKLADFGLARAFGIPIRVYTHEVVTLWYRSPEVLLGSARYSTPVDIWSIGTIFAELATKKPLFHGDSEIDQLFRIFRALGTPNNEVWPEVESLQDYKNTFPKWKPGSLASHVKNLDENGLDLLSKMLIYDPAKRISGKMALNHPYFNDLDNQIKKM
T3 sequence (P14635 whole entry partner, species assumed): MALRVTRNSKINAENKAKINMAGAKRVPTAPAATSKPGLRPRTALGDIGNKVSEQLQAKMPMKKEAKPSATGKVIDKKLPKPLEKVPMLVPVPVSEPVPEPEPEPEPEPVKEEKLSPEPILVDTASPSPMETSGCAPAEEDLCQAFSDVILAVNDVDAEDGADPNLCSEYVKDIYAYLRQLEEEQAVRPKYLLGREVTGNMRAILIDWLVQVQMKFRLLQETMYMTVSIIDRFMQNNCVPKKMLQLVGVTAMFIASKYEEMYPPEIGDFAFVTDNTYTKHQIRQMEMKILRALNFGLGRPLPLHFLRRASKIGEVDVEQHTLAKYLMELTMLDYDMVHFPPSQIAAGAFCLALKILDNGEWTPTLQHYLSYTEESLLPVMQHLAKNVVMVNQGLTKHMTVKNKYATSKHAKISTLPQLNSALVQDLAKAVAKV

Structure (SMILES)	IC50 (Cdk2/cyclin A) [nM]	IC50 (Cdk4/cyclin D1; 50 μM ATP, GST-Rb substrate) [nM]	IC50 (Cdk4/cyclin D1) [nM]	IC50 (Cdc2/cyclin B) [nM]	IC50 (Cdk6/cyclin D2) [nM]	IC50 (CDK2/cyclinE [1]) [nM]	IC50 [2] [nM]	IC50 (c-Abl) [nM]	Kd (CDK2/cyclinE [3]) [nM]
CC(C)c1nn(-c2c(Cl)cc(Cl)cc2Cl)c2nc(Cc3ccc(OCCN4CCOCC4)cc3)[nH]c(=O)c12 [A]	< 100	< 1000	< 1000	< 1000	< 1000	< 100			
CC(C)c1nn(-c2c(Cl)cccc2Cl)c2nc(Cc3ccc(OP(=O)(O)O)cc3)[nH]c(=O)c12 [B]	< 100	< 10000		< 100		< 10			
CC(C)c1nn(-c2c(Cl)cccc2Cl)c2nc(Cc3ccc(O)c(CN4CCN(C(C)C)CC4)c3)[nH]c(=O)c12 [Compound C]	< 100	< 1000		< 1000		< 100	> 10000	> 10000	
O=C(Nc1cccc2c1C(=O)c1c-2n[nH]c1-c1ccc(OCCN2CCCC2)cc1)NN1CCOCC1 [Compound I]	< 100	< 10		< 100		< 100			
Cc1cc(-c2[nH]nc3c2C(=O)c2c(NC(=O)NN4CCN(C)CC4)cccc2-3)ccc1OCCN1CCCC1 [Compound P]						< 100			
CC(C)c1nn(-c2c(Cl)cc(Cl)cc2Cl)c2nc(Cc3ccc(OC(C)(C)C(=O)NCCOCCOCCOCCOCCOCCN)cc3)[nH]c(=O)c12 [Compound R]									8
CC(C)c1nn(-c2c(Cl)cc(Cl)cc2Cl)c2nc(Cc3ccc(NS(=O)(=O)CCCN4CCOCC4)cc3)[nH]c(=O)c12 [D]	< 100	< 1000		< 1000		< 100			
CC(C)N1CCN(CCOc2ccc(-c3[nH]nc4c3C(=O)c3c(NC(=O)NN5CCOCC5)cccc3-4)cc2)CC1 [E]	< 10	< 10	< 10	< 100	< 10	< 10	< 10000	< 10000	
CN1CCN(NC(=O)Nc2cccc3c2C(=O)c2c-3n[nH]c2-c2ccc(OCCN3CCCC3)cc2)CC1 [F]	< 100	< 10	< 10	< 100	< 10	< 100			
CCCN(CCOc1ccc(-c2[nH]nc3c2C(=O)c2c(NC(=O)NN4CCOCC4)cccc2-3)cc1)CC1CC1 [G]	< 100	< 10		< 100		< 100	> 10000	> 10000	
O=C(Nc1cccc2c1C(=O)c1c-2n[nH]c1-c1ccc(OCCN(CCO)CCO)cc1)NN1CCOCC1 [H]	< 100	< 100		< 100		< 100			
O=C(Nc1cccc2c1C(=O)c1c-2n[nH]c1-c1ccc(OP(=O)(O)O)cc1)NN1CCOCC1 [J]						< 100			
CC(C)N1CCN(Cc2cc(-c3[nH]nc4c3C(=O)c3c(NC(=O)NN5CCOCC5)cccc3-4)ccc2O)CC1 [K]						< 100			
Cc1cc(OCCN2CCCC2)ccc1-c1[nH]nc2c1C(=O)c1c(NC(=O)NN3CCN(C)CC3)cccc1-2 [L]		< 100		< 100		< 100			
CN1CCN(NC(=O)Nc2cccc3c2C(=O)c2c-3n[nH]c2-c2ccc(OCCN3CCC[C@H]3CO)cc2)CC1 [M]						< 100			
CN1CCN(NC(=O)Nc2cccc3c2C(=O)c2c-3n[nH]c2-c2ccc(OCCN(CCO)CCO)cc2)CC1 [N]				< 10		< 100			
CN1CCN(NC(=O)Nc2cccc3c2C(=O)c2c-3n[nH]c2-c2ccc(OCCN3CC[C@H](O)C3)cc2)CC1 [O]						< 100			
CN1CCN(NC(=O)Nc2cccc3c2C(=O)c2c-3n[nH]c2-c2ccc(OCCN3CCOCC3)cc2)CC1 [Q]	< 100	< 10	< 100	< 100	< 100	< 10			
